# Experimental data published in US9045445B2, “Glycine transporter-1 inhibitors, methods of making them, and uses thereof” (Albany Molecular Research, Inc., priority 2010, dated 2015).
# pIC50: −log10 of the molar value. Counter-ions that a name gives are not always drawn.
# How the values were obtained:
# [1] = biological target: T1, glycine transporter-2 (GlyT-2) (Homo sapiens, UniProt Q9Y345); assay: [14C]glycine uptake assay in HEK-GlyT-2 transfected cells; assay type: cell-based; settings: HEK-GlyT-2 cells
# T1 construct: expressed in transfected cells
# T1 sequence (Q9Y345 1-797): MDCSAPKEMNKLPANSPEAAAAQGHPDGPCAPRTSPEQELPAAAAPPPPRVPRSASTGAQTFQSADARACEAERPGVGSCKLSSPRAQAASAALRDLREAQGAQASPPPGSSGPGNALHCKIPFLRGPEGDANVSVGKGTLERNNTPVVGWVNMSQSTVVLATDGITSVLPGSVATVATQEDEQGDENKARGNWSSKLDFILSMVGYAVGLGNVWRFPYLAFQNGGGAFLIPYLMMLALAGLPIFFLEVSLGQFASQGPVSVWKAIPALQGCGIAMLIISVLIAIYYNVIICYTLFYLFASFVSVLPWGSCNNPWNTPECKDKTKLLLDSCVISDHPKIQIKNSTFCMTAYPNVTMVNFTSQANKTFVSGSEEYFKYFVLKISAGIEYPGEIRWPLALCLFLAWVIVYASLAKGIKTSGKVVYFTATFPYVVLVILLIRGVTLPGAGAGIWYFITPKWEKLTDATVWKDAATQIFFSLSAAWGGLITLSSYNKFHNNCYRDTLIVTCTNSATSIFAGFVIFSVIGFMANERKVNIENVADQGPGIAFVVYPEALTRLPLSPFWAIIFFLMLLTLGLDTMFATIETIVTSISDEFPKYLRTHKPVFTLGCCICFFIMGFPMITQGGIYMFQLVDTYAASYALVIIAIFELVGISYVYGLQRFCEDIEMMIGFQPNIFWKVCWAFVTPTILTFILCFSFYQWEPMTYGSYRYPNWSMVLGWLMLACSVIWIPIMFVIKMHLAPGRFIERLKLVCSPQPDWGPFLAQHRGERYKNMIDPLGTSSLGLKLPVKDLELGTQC
# [2] = biological target: T2, glycine transporter-1 (GlyT-1) (Homo sapiens, UniProt P48067); assay: [14C]glycine uptake assay in JAR cells endogenously expressing GlyT-1 (scintillation proximity); assay type: cell-based; settings: JAR cells, [14C]glycine 5 μM, 3 hour incubation; read-out: GlyT-1 IC50
# T2 construct: JAR cells (ATCC#HTB-144), which endogenously express GlyT-1; host or cells: JAR human choriocarcinoma cells
# T2 sequence (P48067 1-706): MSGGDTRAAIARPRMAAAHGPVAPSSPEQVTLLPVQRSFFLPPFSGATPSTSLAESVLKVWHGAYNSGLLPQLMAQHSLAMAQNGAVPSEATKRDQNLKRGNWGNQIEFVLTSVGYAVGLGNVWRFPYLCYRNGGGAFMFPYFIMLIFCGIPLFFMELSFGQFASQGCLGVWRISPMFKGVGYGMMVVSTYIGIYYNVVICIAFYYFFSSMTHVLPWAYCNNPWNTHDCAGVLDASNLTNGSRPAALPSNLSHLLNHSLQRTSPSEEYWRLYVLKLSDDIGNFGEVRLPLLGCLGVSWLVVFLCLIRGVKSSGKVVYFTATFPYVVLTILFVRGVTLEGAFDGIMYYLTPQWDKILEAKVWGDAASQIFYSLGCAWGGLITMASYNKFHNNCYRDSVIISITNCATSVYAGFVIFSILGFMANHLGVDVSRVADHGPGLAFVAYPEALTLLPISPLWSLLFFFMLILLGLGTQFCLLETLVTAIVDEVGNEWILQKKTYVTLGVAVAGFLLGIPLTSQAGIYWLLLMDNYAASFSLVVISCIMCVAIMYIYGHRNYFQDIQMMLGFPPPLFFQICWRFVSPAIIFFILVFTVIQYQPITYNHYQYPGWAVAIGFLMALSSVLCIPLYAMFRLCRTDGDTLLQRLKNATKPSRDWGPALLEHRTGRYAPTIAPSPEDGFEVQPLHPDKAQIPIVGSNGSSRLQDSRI
# In short: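 IC50 comes from a four-parameter fit of nine-point, duplicate curves measuring inhibition of 5 μM [14C]glycine uptake, read by scintillation proximity after 3 h at 37 °C. Cells are human JAR, which express GlyT-1 endogenously, given 10 min compound pre-treatment in pH 7.4 buffer with 5 mM alanine and 0.75% DMSO.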
pIC50 [1],pIC50 [2],Compound
4.41,7.66,"CCCS(=O)(=O)N1CCN(C2(CNC(=O)c3ccccc3OC(F)(F)F)CCCCC2)CC1 [compound 4, N-((1-(4-(Propylsulfonyl)piperazin-1-yl)cyclohexyl)methyl)-2-(trifluoromethoxy) benzamide Hydrochloride]"
< 4.12,7.52,"Cn1cnc(S(=O)(=O)N2CCN(C3(CNC(=O)c4ccc(F)cc4F)CCCCC3)CC2)c1 [compound 100, 2,4-Difluoro-N-((1-(4-(1-methyl-1H-imidazol-4-ylsulfonyl)piperazin-1-yl)cyclohexyl)methyl) benzamide Hydrochloride]"
< 4.12,7.89,"Cc1ccc(C(=O)NCC2(N3CCN(S(=O)(=O)c4cn(C)cn4)CC3)CCCCC2)c(C)c1 [compound 94, 2,4-Dimethyl-N-((1-(4-(1-methyl-1H-imidazol-4-ylsulfonyl)piperazin-1-yl)cyclohexyl)methyl) benzamide Hydrochloride]"
< 4.12,7.32,"CCCS(=O)(=O)N1CCN(C2(CNC(=O)c3cc(F)c(F)cc3Cl)CCC(F)(F)CC2)CC1 [compound 264, 2-Chloro-N-((4,4-difluoro-1-(4-(propylsulfonyl)piperazin-1-yl)cyclohexyl)methyl)-4,5-difluorobenzamide Hydrochloride]"
< 4.52,6.74,"CCCS(=O)(=O)N1CCN(C2(CNC(=O)c3c(N)cccc3Cl)CCCC2)CC1 [compound 77, 2-Amino-6-chloro-N-((1-(4-(propylsulfonyl)piperazin-1-yl)cyclopentyl)methyl) benzamide Hydrochloride]"
< 4.12,8.15,"CCCS(=O)(=O)N1CCN(C2(CNC(=O)c3c(Cl)cc(C(F)(F)F)cc3C(F)(F)F)CCC(F)(F)CC2)CC1 [compound 254, 2-Chloro-N-((4,4-difluoro-1-(4-(propylsulfonyl)piperazin-1-yl)cyclohexyl)methyl)-4,6-bis(trifluoromethyl) benzamide Hydrochloride]"
< 4.12,7.55,"CCCS(=O)(=O)N1CCN(C2(CNC(=O)c3c(C)cc(F)cc3OC)CCC(F)(F)CC2)CC1 [compound 137, N-((4,4-Difluoro-1-(4-(propylsulfonyl)piperazin-1-yl)cyclohexyl)methyl)-4-fluoro-2-methoxy-6-methylbenzamide Hydrochloride]"
< 4.52,6.90,"CCCS(=O)(=O)N1CCN(C2(CNC(=O)c3ccc(C(F)(F)F)cc3)CCCCC2)CC1 [compound 7, N-((1-(4-(Propyl-sulfonyl)piperazin-1-yl)cyclohexyl)methyl)-4-(trifluoromethyl) benzamide Hydrochloride]"
< 4.12,7.35,"COc1cc(F)cc(C)c1C(=O)NCC1(N2CCN(S(=O)(=O)c3cn(C)cn3)CC2)CCCC1 [compound 103, 4-Fluoro-2-methoxy-6-methyl-N-((1-(4-(1-methyl-1H-imidazol-4-ylsulfonyl)piperazin-1-yl)cyclopentyl)methyl) benzamide Hydrochloride]"
< 4.12,9.00,"Cn1cc(S(=O)(=O)N2CCN(C3(CNC(=O)c4ccc(Cl)cc4Cl)CCC(F)(F)CC3)CC2)nn1 [compound 228, 2,4-Dichloro-N-((4,4-difluoro-1-(4-(1-methyl-1H-l,2,3-triazol-4-ylsulfonyl)piperazin-1-yl)cyclohexyl)methyl) benzamide Hydrochloride]"
< 4.12,7.55,"CC(NC(=O)c1ccc(C(F)(F)F)cc1C(F)(F)F)C1(N2CCN(S(=O)(=O)c3cn(C)nn3)CC2)CCC(F)(F)CC1 (centres unmarked) [compound 225, N-(1-(4,4-Difluoro-1-(4-(1-methyl-1H-1,2,3-triazol-4-ylsulfonyl)piperazin-1-yl)cyclohexyl)ethyl)-2,4-bis(trifluoromethyl) benzamide Hydrochloride]"
< 4.12,7.66,"CCCS(=O)(=O)N1CCN(C2(CNC(=O)c3ccc(F)cc3C(F)(F)F)CCCCCC2)CC1 [compound 71, 4-Fluoro-N-((1-(4-(propylsulfonyl)piperazin-1-yl)cycloheptyl)methyl)-2-(trifluoromethyl)benzamide Hydrochloride]"
< 4.12,7.89,"CCCS(=O)(=O)N1CCN(C2(CNC(=O)c3c(F)cc(Cl)cc3F)CCCCCC2)CC1 [compound 51, 4-Chloro-2,6-difluoro-N-((1-(4-propylsulfonyl)piperazin-1-yl)cycloheptyl)methyl) benzamide Hydrochloride]"
< 4.12,7.96,"CCCS(=O)(=O)N1CCN(C2(CNC(=O)c3c(Cl)cccc3Cl)CCCCCC2)CC1 [compound 64, 2,6-Dichloro-N-((1-(4-(propylsulfonyl)piperazin-1-yl)cycloheptyl)methyl) benzamide Hydrochloride]"
< 4.12,7.08,"Cn1cc(S(=O)(=O)N2CCN(C3(CNC(=O)c4c(F)cccc4F)CCOCC3)CC2)nn1 [compound 128, 2,6-Difluoro-N-((4-(4-(1-methyl-1H-1,2,3-triazol-4-ylsulfonyl)piperazin-1-yl)tetrahydro-2H-pyran-4-yl)methyl)benzamide Hydrochloride]"
< 4.12,6.99,"Cn1cnc(S(=O)(=O)N2CCN(C3(CNC(=O)c4ccc(Cl)cc4Cl)CCCC3)CC2)c1 [compound 105, Hydrochloride]"
< 4.12,7.96,"CCCS(=O)(=O)N1CCN(C2(CNC(=O)c3ccc(Cl)cc3Cl)CCCCCC2)CC1 [compound 60, 2,4-Dichloro-N-((1-(4-(propylsulfonyl)piperazin-1-yl)cycloheptyl)methyl) benzamide Hydrochloride]"
< 4.12,8.52,"Cn1cc(S(=O)(=O)N2CCN(C3(CNC(=O)c4cc(F)c(F)cc4Cl)CCC(F)(F)CC3)CC2)nn1 [compound 235, 2-Chloro-N-((4,4-difluoro-1-(4-(1-methyl-1H-1,2,3-triazol-4-ylsulfonyl)piperazin-1-yl)cyclohexyl)methyl)-4,5-difluorobenzamide Hydrochloride]"
< 4.12,6.47,"Cn1cnc(S(=O)(=O)N2CCN(C3(CNC(=O)c4c(F)cccc4F)CCOCC3)CC2)c1 [compound 124, 2,6-Difluoro-N-((4-(4-(1-methyl-1H-imidazol-4-ylsulfonyl)piperazin-1-yl)tetrahydro-2H-pyran-4-yl)methyl)benzamide Hydrochloride]"
4.21,5.94,"CCCS(=O)(=O)N1CCN(C2(CNC(=O)c3ccc(OC)cc3)CCCCC2)CC1 [compound 23, 4-Methoxy-N-((1-(4-(propylsulfonyl)piperazin-1-yl)cyclohexyl)methyl) benzamide Hydrochloride]"

Compound,pIC50 [1],pIC50 [2]
"2-Chloro-N-((4,4-difluoro- 1-(3-(propylsulfonyl)-3,8- diazabicyclo[3.2.1]octan- 8-yl)cyclohexyl)methyl)- 4-(trifluoromethyl) benzamide Hydrochloride [compound 261]",< 4.12,6.51
"CCCS(=O)(=O)N1CCN(C2(CNC(=O)c3ccc(Cl)cc3Cl)CCC(F)(F)CC2)CC1 [compound 136, 2,4-Dichloro-N-((4,4-difluoro-1-(4-(propylsulfonyl)piperazin-1-yl)cyclohexyl)methyl) benzamide Hydrochloride]",< 4.12,7.44
